Earlier results, collected in patent US20070149578A1, “Combination Therapy” (Pfizer, Inc., priority 2000, published 2007).

Key:
calcium channel = details: see International Patent Application Number PCT/EP94/02697
[1] = test system: smooth muscle cell migration; details: see International Patent Application Number PCT/EP95/00847

| SMILES | calcium channel blocking activity (calcium channel) | inhibitor of smooth muscle cell migration [1] |
| --- | --- | --- |
| CCOC(=O)C1=C(COCCN)NC(C)=C(C(=O)OC)[C@H]1c1ccccc1Cl (single isomer, unassigned) [R(+) isomer] | little or no calcium channel blocking activity | potent inhibitor |
| CCOC(=O)C1=C(COCCN)NC(C)=C(C(=O)OC)[C@@H]1c1ccccc1Cl (single isomer, unassigned) [S(−) isomer] | substantially confined to the S(−) isomer |  |
